Source: publication PMC11996864, “A small-molecule inhibitor of BCL10-MALT1 interaction abrogates progression of diffuse large B cell lymphoma” (The Journal of Clinical Investigation, 2025)
Where “and” joins values, the source holds several entries; their conditions need not be identical. Identical values can stand only once. Entries after “also recorded” stand apart in the source; their conditions may differ.

Columns and labels:
full-length MALT1 = molecular target: T1, full-length MALT1 (Homo sapiens, UniProt Q9UDY8); assay: SPR binding of M1i-124 to immobilized full-length MALT1; settings: steady-state affinity model; read-out: equilibrium dissociation constant (KD)
T1 construct: full-length GST-tagged MALT1 (Novus, catalog H00010892-P01) protein; purchased Novus H00010892-P01
Description: Surface plasmon resonance (SPR) experiments were performed on a Biacore 2000 system (Cytiva). Full-length GST-BCL10 (Abnova, catalog H00008915-P01) was immobilized onto a gold sensor chip surface, and analyte solution containing MALT1(DD+Ig1-2), MALT1(DD), or MALT1(Ig1-2) purified protein was injected over the surface through a series of flow cells (see Supplemental Methods for details on protein purification). The binding kinetic parameters were obtained using the Langmuir model for global fitting with 1:1 binding ratio where one ligand molecule interacts with one analyte molecule. The equilibrium dissociation constant (KD) of M1i-124 to full-length GST-tagged MALT1 (Novus, catalog H00010892-P01) protein was determined by Creative Biolabs using Biacore T200. Full-length MALT1 protein was immobilized onto CM5 sensor chip surface, and M1i-124 was injected at concentrations of 0, 12.5, 25, 50, 100, and 200 μM. The steady-state affinity model was used to determine the KD.

OCI-Ly7 cells = assay: Apoptosis, annexin staining flow cytometry; type: cell-based, human
OCI-Ly1 cells = assay: CellTiter-Glo ATP viability; type: cell-based, human
Description: (§1) Cell proliferation, viability, and apoptosis assays. […]
(§2) Fluorescent Intensity (MFI) was analyzed by FlowJo (version 10.8.0, BD). CellTiter-glo luminescence assay (Promega, Cat# G7570) was used to quantify ATP levels as a surrogate marker of metabolic viability in DLBCL cells treated with compounds for 6-8 days. Annexin V Alexa 488 (ThermoFisher Scientific, Cat# A13201) and SYTOX Blue Dead Cell (ThermoFisher Scientific, Cat# S34857) stains were used to detect apoptosis in DLBCL cells after treatment with 1 µM compounds for 8 days in TMD8 and OCI-Ly1 and for 5 days in OCI-Ly3 cells, then analyzed with flow cytometry. The percentages of cells in early and late apoptosis were combined for quantification. For CellTrace Violet, CellTiter-glo, and Annexin V apoptosis assays, cell were cultured in media with 50% of the usual serum. […]

TMD8 cells = assay: CellTiter-Glo ATP viability; type: cell-based, human
Description: as §1, §2

OCI-Ly3 cells = assay: CellTiter-Glo ATP viability; type: cell-based, human
Description: as §1
Fluorescent Intensity (MFI) was analyzed by FlowJo (version 10.8.0, BD). CellTiter-glo luminescence assay (Promega, Cat# G7570) was used to quantify ATP levels as a surrogate marker of metabolic viability in DLBCL cells treated with compounds for 6-8 days. […]
The percentages of cells in early and late apoptosis were combined for quantification. For CellTrace Violet, CellTiter-glo, and Annexin V apoptosis assays, cell were cultured in media with 50% of the usual serum. […]

[1] = In vivo pharmacokinetics, plasma LC-MS/MS
Description: Pharmacokinetic and cytochrome P450 inhibition studies. Studies were performed with the assistance of Touchstone Biosciences (Plymouth Meeting, Pennsylvania). For pharmacokinetic bioanalysis, male CD-1 mice were fasted overnight before being dosed with M1i-124 via oral gavage (20mg/kg), intraperitoneal injection in the lower right quadrant of the abdomen (20 mg/kg), or intravenous tail vein injection (5 mg/kg). All blood samples were taken via tail vein at 5, 15, and 30 minutes, and 1, 2, 4, 6, 8, and 24 hours after compound administration. The plasma concentration of the compound was determined using LC-MS/MS analysis. […]

T1 sequence (Q9UDY8 1-813 isoform Q9UDY8-2): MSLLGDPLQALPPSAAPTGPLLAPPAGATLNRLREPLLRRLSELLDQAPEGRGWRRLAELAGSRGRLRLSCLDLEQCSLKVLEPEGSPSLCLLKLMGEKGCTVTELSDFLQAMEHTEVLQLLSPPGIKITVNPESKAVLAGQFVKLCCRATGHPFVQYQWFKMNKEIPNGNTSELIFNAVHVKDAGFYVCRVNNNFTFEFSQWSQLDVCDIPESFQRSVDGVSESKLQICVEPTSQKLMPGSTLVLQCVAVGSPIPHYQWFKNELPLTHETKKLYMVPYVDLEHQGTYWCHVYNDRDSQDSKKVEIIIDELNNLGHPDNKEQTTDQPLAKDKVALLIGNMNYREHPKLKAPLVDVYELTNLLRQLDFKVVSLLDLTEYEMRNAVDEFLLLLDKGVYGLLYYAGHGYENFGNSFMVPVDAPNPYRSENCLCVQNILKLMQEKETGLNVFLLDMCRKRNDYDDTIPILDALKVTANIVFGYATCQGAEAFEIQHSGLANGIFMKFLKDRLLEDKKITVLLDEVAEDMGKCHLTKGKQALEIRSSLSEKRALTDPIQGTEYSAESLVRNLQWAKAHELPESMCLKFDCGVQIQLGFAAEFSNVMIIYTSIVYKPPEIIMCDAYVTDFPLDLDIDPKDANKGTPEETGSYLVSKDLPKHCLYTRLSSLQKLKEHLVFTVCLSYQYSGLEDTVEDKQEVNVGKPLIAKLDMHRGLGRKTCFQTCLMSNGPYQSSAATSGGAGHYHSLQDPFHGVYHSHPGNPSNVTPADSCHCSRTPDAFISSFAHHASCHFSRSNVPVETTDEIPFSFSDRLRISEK

**Q.** With `O=S(=O)(NCc1ccc2c(c1)OCO2)c1ccc(Cc2ccc(S(=O)(=O)NCc3ccc4c(c3)OCO4)cc2)cc1` [M1i-124] as the compound, how does the Kd (full-length MALT1) read?
**A.** Its Kd is 296000 nM.

**Q.** And the “Annexin (% positivity)” value (OCI-Ly7 cells; Ly7, individual replicates)?
**A.** The value was 27% and 16.65% and 14.5%.

**Q.** And the “apoptosis of OCI-Ly7 cells” value (OCI-Ly7 cells; result in words)?
**A.** The value was “either no or minimal apoptotic response”.

**Q.** What about the “CellTiter-Glo viability (% of control)” value (OCI-Ly1 cells; OCI-Ly1, M1i-124 (µM) 0.02) of the same compound?
**A.** The value was 107.27% and 98.9873% and 92.7867%.

**Q.** And the “CellTiter-Glo viability (% of control)” value (OCI-Ly1 cells; OCI-Ly1, M1i-124 (µM) 0.05)?
**A.** Its value is 97.4522% and 115.002% and 102.297%.

**Q.** What about the “CellTiter-Glo viability (% of control)” value (OCI-Ly1 cells; OCI-Ly1, M1i-124 (µM) 0.1) of the same compound?
**A.** Its value is 110.647% and 95.1607% and 118.153%.

**Q.** What about the “CellTiter-Glo viability (% of control)” value (OCI-Ly1 cells; OCI-Ly1, M1i-124 (µM) 0.2) of the same compound?
**A.** The value was 107.42% and 81.8681% and 81.0306%.

**Q.** What about the “CellTiter-Glo viability (% of control)” value (OCI-Ly1 cells; OCI-Ly1, M1i-124 (µM) 0.5) of the same compound?
**A.** Its value is 117.286% and 98.6082% and 99.6544%.

**Q.** And the “CellTiter-Glo viability (% of control)” value (OCI-Ly1 cells; OCI-Ly1, M1i-124 (µM) 1)?
**A.** The value was 125.229% and 113.171% and 94.1756%.

**Q.** What about the “CellTiter-Glo viability (% of control)” value (OCI-Ly1 cells; OCI-Ly1, M1i-124 (µM) 2) of the same compound?
**A.** The value was 125.761% and 123.625% and 96.808%.

**Q.** What about the “CellTiter-Glo viability (% of control)” value (OCI-Ly1 cells; OCI-Ly1, M1i-124 (µM) 5) of the same compound?
**A.** The value was 145.729% and 138.657% and 113.755%.

**Q.** What about the IC50 (TMD8 cells; Homo sapiens, TMD8 cells, read-out: 50% cytotoxic concentration) of the same compound?
**A.** The IC50 was about 200 nM.

**Q.** And the “viability of TMD8 cells” value (TMD8 cells; result in words)?
**A.** Its value is “loss of cell viability; also recorded: dose-dependent decrease in viability”.

**Q.** What about the IC50 (OCI-Ly3 cells; Homo sapiens, OCI-Ly3 cells, read-out: 50% cytotoxic concentration) of the same compound?
**A.** Its IC50 is about 500 nM.

**Q.** And the “Percent viability (ATP level)” value (OCI-Ly3 cells; OCI-Ly3, M1i-124 (µM) 0.02)?
**A.** The value was 93.0259% and 81.697% and 95.3842% and 87.3232%.

**Q.** And the “Percent viability (ATP level)” value (OCI-Ly3 cells; OCI-Ly3, M1i-124 (µM) 0.05)?
**A.** Its value is 107.435% and 78.839% and 101.939% and 104.596%.

**Q.** What about the “Percent viability (ATP level)” value (OCI-Ly3 cells; OCI-Ly3, M1i-124 (µM) 0.1) of the same compound?
**A.** The value was 97.8481% and 79.4097% and 92.5817% and 82.7797%.

**Q.** What about the “Percent viability (ATP level)” value (OCI-Ly3 cells; OCI-Ly3, M1i-124 (µM) 0.2) of the same compound?
**A.** The value was 93.5879% and 72.4634% and 88.6927% and 76.6947%.

**Q.** What about the “Percent viability (ATP level)” value (OCI-Ly3 cells; OCI-Ly3, M1i-124 (µM) 5) of the same compound?
**A.** Its value is 38.3426% and 24.1881% and 19.3497% and 28.4648%.

**Q.** And the “viability of OCI-Ly3 cells” value (OCI-Ly3 cells; result in words)?
**A.** The value was “dose-dependent decrease in viability”.

**Q.** What about the “Plasma concentration (IP)” value ([1]; 0.083 hours) of the same compound?
**A.** Its value is 658 ng/mL and 561 ng/mL.

**Q.** What about the “Plasma concentration (IP)” value ([1]; 0.25 hours) of the same compound?
**A.** The value was 720 ng/mL and 607 ng/mL.

**Q.** What about the “Plasma concentration (IP)” value ([1]; 0.5 hours) of the same compound?
**A.** The value was 775 ng/mL and 671 ng/mL.

**Q.** And the “Plasma concentration (IP)” value ([1]; 1 hours)?
**A.** The value was 437 ng/mL and 307 ng/mL.

**Q.** What about the “Plasma concentration (IP)” value ([1]; 2 hours) of the same compound?
**A.** Its value is 242 ng/mL and 173 ng/mL.

**Q.** And the “Plasma concentration (IP)” value ([1]; 4 hours)?
**A.** Its value is 110 ng/mL and 86.5 ng/mL.

**Q.** What about the “Plasma concentration (IP)” value ([1]; 6 hours) of the same compound?
**A.** Its value is 59.4 ng/mL.

**Q.** What about the “Plasma concentration (IP)” value ([1]; 8 hours) of the same compound?
**A.** Its value is 38.1 ng/mL and 35.4 ng/mL.

**Q.** What about the “Plasma concentration (IP)” value ([1]; 24 hours) of the same compound?
**A.** Its value is 7.87 ng/mL.

**Q.** And the “Plasma concentration (IV)” value ([1]; 0.083 hours)?
**A.** Its value is 2080 ng/mL and 1440 ng/mL.

**Q.** And the “Plasma concentration (IV)” value ([1]; 0.25 hours)?
**A.** The value was 1320 ng/mL and 1020 ng/mL.

**Q.** What about the “Plasma concentration (IV)” value ([1]; 0.5 hours) of the same compound?
**A.** The value was 302 ng/mL.

**Q.** What about the “Plasma concentration (IV)” value ([1]; 1 hours) of the same compound?
**A.** The value was 115 ng/mL and 152 ng/mL.

**Q.** What about the “Plasma concentration (IV)” value ([1]; 2 hours) of the same compound?
**A.** Its value is 30.6 ng/mL and 29 ng/mL.

**Q.** What about the “Plasma concentration (IV)” value ([1]; 4 hours) of the same compound?
**A.** Its value is 16.3 ng/mL.

**Q.** And the “Plasma concentration (IV)” value ([1]; 6 hours)?
**A.** Its value is 12.7 ng/mL and 16.3 ng/mL.

**Q.** And the “Plasma concentration (IV)” value ([1]; 8 hours)?
**A.** Its value is 12.6 ng/mL.

**Q.** What about the “Plasma concentration (IV)” value ([1]; 24 hours) of the same compound?
**A.** Its value is 2.97 ng/mL and 3.88 ng/mL.

**Q.** What about the “Plasma concentration (PO)” value ([1]; 0.083 hours) of the same compound?
**A.** The value was 306 ng/mL and 267 ng/mL.

**Q.** And the “Plasma concentration (PO)” value ([1]; 0.25 hours)?
**A.** Its value is 56.5 ng/mL and 86.1 ng/mL.

**Q.** What about the “Plasma concentration (PO)” value ([1]; 0.5 hours) of the same compound?
**A.** Its value is 57.2 ng/mL.

**Q.** And the “Plasma concentration (PO)” value ([1]; 1 hours)?
**A.** Its value is 25.9 ng/mL and 21.8 ng/mL.

**Q.** What about the “Plasma concentration (PO)” value ([1]; 2 hours) of the same compound?
**A.** Its value is 14.7 ng/mL and 15.7 ng/mL.

**Q.** What about the “Plasma concentration (PO)” value ([1]; 4 hours) of the same compound?
**A.** Its value is 13.1 ng/mL.

**Q.** And the “Plasma concentration (PO)” value ([1]; 6 hours)?
**A.** The value was 9.73 ng/mL and 11.5 ng/mL.
